Molecular target: PfIspE (Plasmodium falciparum, UniProt Q8I470)
Experiment: PfIspE enzymatic assay (coupled to PK/LDH, NADH oxidation at 340 nm)
Type: biochemical
Protocol: Firstly, we performed a temperature‐dependent decomposition study of compound 1 at 10 mM concentration in DMSO at room temperature (RT), +4 °C and −20 °C (SI, Section 2.3). […] Besides visual inspection of the colour changes of the test sample (see Table 2), the decomposition was monitored by HRMS and NMR spectroscopy. […] Furthermore, all three samples were tested for their inhibitory activity against PfIspE after the incubation period. […] In the IspE assay, the activity of the target enzyme is coupled to the oxidation of NADH (which can be followed spectrophotometrically at 340 nm) via a cascade of the auxiliary enzymes pyruvate kinase and lactate dehydrogenase (PK/LDH).[10] […] Three samples of compound 1 were tested in PK/LDH assay (Table 2).
Another approach to address this issue is to perform the IspE assay with one or several orthologues of PfIspE. […] The IspE assay setup was identical for both Pf and EcIspE orthologs except for the target enzyme used. One of the setup requirements was that the enzymatic activity of the auxiliary enzymes PK/LDH exceeded the activity of the target enzyme IspE not less than a factor of ten.[10] We investigated, if the inhibition of the auxiliary enzymes may substantially influence the IC50 values obtained from the coupled IspE assay.
1.1 General Procedure for Enzymatic Assay
The cloning, expression and purification of Plasmodium falciparum[1] and Escherichia coli[2,3] and their subsequent assays followed the previously reported procedures .[1] In some specified cases, the tested compound was dissolved in methanol or acetonitrile for the assay .
Due to the nature of the study, some decomposition samples w ere only tested once and thus, for some formal standard error, […]
For the final purified compounds, replicates were measured and standard deviation was calculated at least from two replicates. […]
2.) Decomposition Study Procedure
All reagents and solvents were of commercial quality and used without further purification.

[1] = fresh batch, freshly prepared stock solution

Sequence of PfIspE (Q8I470 entry or part of it): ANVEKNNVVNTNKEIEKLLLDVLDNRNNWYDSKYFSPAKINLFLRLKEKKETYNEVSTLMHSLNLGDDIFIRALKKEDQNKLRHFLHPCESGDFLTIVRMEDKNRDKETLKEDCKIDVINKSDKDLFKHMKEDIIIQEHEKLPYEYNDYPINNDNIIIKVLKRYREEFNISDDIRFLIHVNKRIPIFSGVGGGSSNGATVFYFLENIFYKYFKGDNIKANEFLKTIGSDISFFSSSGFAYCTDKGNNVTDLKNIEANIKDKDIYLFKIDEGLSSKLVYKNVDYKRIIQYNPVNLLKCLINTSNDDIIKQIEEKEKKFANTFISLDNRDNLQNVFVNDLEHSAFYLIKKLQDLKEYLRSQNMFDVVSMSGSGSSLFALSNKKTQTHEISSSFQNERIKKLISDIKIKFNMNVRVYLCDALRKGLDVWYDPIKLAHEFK

CCn1c(C)cc(-c2csc(Nc3ccccc3C(F)(F)F)n2)c1C [Compound 1]
IC50 (10 mM DMSO stock stored at +4 °C, measured after 3 months): 16 ± 7 µM
IC50 (10 mM DMSO stock stored at RT, measured after 3 months): 12 ± 4 µM
IC50 (10 mM DMSO stock stored at −20 °C, measured after 3 months): > 500 µM
IC50 (10 mM stock in ACN at RT, 0 days of incubation): > 500 µM
IC50 (10 mM stock in ACN at RT, 5 days of incubation): > 500 µM
IC50 (10 mM stock in ACN at RT, 7 days of incubation): > 500 µM
IC50 (10 mM stock in ACN at RT, 9 days of incubation): > 500 µM
IC50 (10 mM stock in ACN at RT, 12 days of incubation): > 500 µM
IC50 (10 mM stock in ACN at RT, 14 days of incubation): > 500 µM
IC50 (10 mM stock in ACN at RT, 16 days of incubation): > 500 µM
IC50 (10 mM stock in DMSO at RT, 0 days of incubation): > 500 µM
IC50 (10 mM stock in DMSO at RT, 5 days of incubation): 19 ± 7 µM
IC50 (10 mM stock in DMSO at RT, 7 days of incubation): 24 ± 9 µM
IC50 (10 mM stock in DMSO at RT, 9 days of incubation): 10 ± 4 µM
IC50 (10 mM stock in DMSO at RT, 12 days of incubation): 1 ± 1 µM
IC50 (10 mM stock in DMSO at RT, 14 days of incubation): 10 ± 4 µM
IC50 (10 mM stock in DMSO at RT, 16 days of incubation): 11 ± 4 µM
IC50 (10 mM stock in MeOH at RT, 0 days of incubation): > 500 µM
IC50 (10 mM stock in MeOH at RT, 5 days of incubation): > 500 µM
IC50 (10 mM stock in MeOH at RT, 7 days of incubation): > 500 µM
IC50 (10 mM stock in MeOH at RT, 9 days of incubation): > 500 µM
IC50 (10 mM stock in MeOH at RT, 12 days of incubation): > 500 µM
IC50 (10 mM stock in MeOH at RT, 14 days of incubation): > 500 µM
IC50 (10 mM stock in MeOH at RT, 16 days of incubation): > 500 µM
IC50 (analytical sample, DMSO at RT, 0 days of incubation, dissolved in methanol shortly before the assay): > 500 µM
IC50 (analytical sample, DMSO at RT, 1 day of incubation, dissolved in methanol shortly before the assay): > 500 µM
IC50 (analytical sample, DMSO at RT, 2 days of incubation, dissolved in methanol shortly before the assay): > 500 µM
IC50 (analytical sample, DMSO at RT, 3 days of incubation, dissolved in methanol shortly before the assay): 486 ± 20 µM
IC50 (analytical sample, DMSO at RT, 4 days of incubation, dissolved in methanol shortly before the assay): 99 ± 23 µM
IC50 (fractions of second purification (DMSO, RT, five days), dissolved in ACN): > 1370 µM
IC50 (fractions of second purification (DMSO, RT, five days), dissolved in MeOH): > 1370 µM
IC50 [1]: > 500 µM
PfIspE IC50 [1]: no activity
IC50 (freshly dissolved compound, in methanol shortly before the assay (Table 4 footnote b)): > 500 µM
IC50 (old batch (decomposed DMSO stock)): 8 ± 2.8 µM
IC50 (old decomposed sample, control run at the same time as the temperature study): 10 ± 3 µM

— paper PMC8360061, “Search for the Active Ingredients from a 2‐Aminothiazole DMSO Stock Solution with Antimalarial Activity” (Chemmedchem, 2021)
